This is an account of results in patent US9139613B2, “Macrocyclic compounds and methods for their production” (NEUROVIVE PHARMACEUTICAL AB, priority 2011, dated 2015).

Data set [1] can be described thus: Anti-metabolic effect (MTS) in Huh5.2 replicon cells. As to conditions: human. The protocol:
(§1) Dilution series are prepared; each dilution series is performed in at least duplicate.
(§2) The selectivity index (SI), indicative of the therapeutic window of the compound, is calculated as CC50/EC50.

Data set [2] deals with T1, CypA Peptidyl Prolyl cis-trans Isomerase (PPlase) (Homo sapiens, UniProt P62937).
T1 construct: GST (cleaved yes); made in house
T1 sequence (P62937 whole entry): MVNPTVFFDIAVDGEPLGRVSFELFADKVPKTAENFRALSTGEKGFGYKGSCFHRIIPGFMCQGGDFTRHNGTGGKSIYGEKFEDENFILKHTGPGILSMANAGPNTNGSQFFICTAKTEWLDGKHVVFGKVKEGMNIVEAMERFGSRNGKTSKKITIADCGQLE
Kind of data set: Inhibition of CypA PPIase activity. It is filed as biochemical.
Description: An alternative methodology for analysing interaction with cyclophilins is described as follows: The PPlase activity of recombinant CypA or D, produced by thrombin cleavage of GST-CypA or D, was determined by following the rate of hydrolysis of N-succinyl-Ala-Ala-Pro-Phe-p-nitroanilide by chymotrypsin. Chymotrypsin only hydrolyzes the trans form of the peptide, and hydrolysis of the cis form, the concentration of which is maximized by using a stock dissolved in trifluoroethanol containing 470 mM LiCl, is limited by the rate of cis-trans isomerization. CypA or D was equilibrated for 1 h at 5° C. with selected test article using a drug concentration range from 0.1 to 20 nM. The reaction was started by addition of the peptide, and the change in absorbance was monitored spectrophotometrically at 10 data points per second. The blank rates of hydrolysis (in the absence of CypA or D) were subtracted from the rates in the presence of CypA or D. The initial rates of the enzymatic reaction were analyzed by first-order regression analysis of the time course of the change in absorbance.

For data set [3], the system named is HCV genotype 1b replicon in Huh5.2 cells. Description: HCV genotype 1b replicon assay using Huh5.2 cells (antiviral effect, luciferase). Format: cell-based, Hepatitis C virus. As to conditions: for pEC50: Hepatitis C virus, Huh-5-2, genotype 1b replicon, Huh5.2 cells, 72 hours; for Selectivity index (CC50/EC50): Huh5.2 replicon assay. The protocol:
as §1
For the evaluation of antiviral effects, assay medium is aspirated and the cell monolayers are washed with PBS. The wash buffer is aspirated, 25 μL of Glo Lysis Buffer (Cat. N°. E2661, Promega) is added after which lysis is allowed to proceed for 5 min at room temperature. Subsequently, 50 μL of Luciferase Assay System (Cat. N^o. E1501, Promega) is added and the luciferase luminescence signal is quantified immediately (1000 ms integration time/well, Safire^2, Tecan). Relative luminescence units are converted to percentage of untreated controls.
as §2
(In general: In antiviral work, replicon cells carry a viral genome segment that copies itself.)

A short description of data set [4]: Mouse in vivo oral and iv PK. As to conditions: male, whole blood, CD1 mice. The protocol: For sanglifehrin analogues, whole blood is analysed. Compounds are formulated in 5% ethanol/5% cremophor EL/90% saline for both p.o. and i.v. administration. Groups of 3 male CD1 mice are dosed with either 1 mg/kg i.v. or 5 or 10 mg/kg p.o. Blood samples (40 μL) are taken via saphenous vein, pre-dose and at 0.25, 0.5, 2, 8, and 24 hours, and diluted with an equal amount of dH20 and put on dry ice immediately. Samples are stored at −70° C. until analysis. The concentration of the compound of the invention or parent compound in the sample is determined via LCMS as follows: 20 μL of blood:H2O (1:1, v/v)/PK sample is added with 20 μL Internal standard (hydroxyl macrocycle, 6) at 100 ng/mL, 20 μL working solution/MeOH and 150 μL of ACN, vortexed for 1 minute at 1500 rpm, and centrifuged at 12000 rpm for 5 min. The supernatant is then injected into LC-MS/MS. The time-course of blood concentrations is plotted and used to derive area under the whole blood concentration-time curve (AUC—which is directly proportional to the total amount of unchanged drug that reaches the systemic circulation). These values are used to generate PK parameters where possible.
To assess the pharmacokinetics of the compounds in an in vivo setting, compounds were dosed po at 10 or 5 mg/kg and iv at 1 mg/kg to groups of CD1 mice. Pharmacokinetic analysis was carried out as described in the general methods. […]

In the next data set the test system is HIV. Description: HIV antiviral assay using HeLa cells. Format: cell-based, Human Immunodeficiency Virus.
For data set [5] the following is noted: immunosuppressive activity; cited from earlier work.

Each structure is given as a SMILES string. pEC50, pIC50: −log10 of the molar value. Read-outs that look alike come from different tables or passages of the source. A value given as a limit tells only on which side of the number the result lay.

For `CON(C)C(=O)/C=C/C=C(\C)[C@@H]1C/C=C/C=C/[C@H](O)[C@H](C)[C@@H](O)[C@@H](CCC(C)=O)C(=O)N[C@@H](C(C)C)C(=O)N[C@@H](Cc2cc(O)cc(F)c2)C(=O)N2CCCC(N2)C(=O)O1` (stereo partly shown) [Compound 23], the CC50 (in general, the concentration giving 50% cytotoxicity) at 72 h in data set [1] was above 100000 nM. For the same compound, in data set [2] (read-out: CypA PPIase IC50), the pIC50 (commonly −log10 of the IC50, conventionally taken in molar units) was 9.48. Besides, in data set [3], the pEC50 – broadly, the EC50 on a negative log10 scale, so that one unit is a factor of ten – is 7.17 and the “Selectivity index (CC50/EC50)” value was above 1493. Also, the clearance in data set [4] (iv at 1 mg/kg) was 0.65 mL/min/kg. In addition, the AUC(0-t) in data set [4] (po, dose level 5 mg/kg, read-out: po AUClast) is 2760 ng·h/mL.
In turn, `C[C@H](Cn1cnc2c(N)ncnc21)OCP(=O)(O)O` [Tenofovir] showed a pEC50 in the data set on HIV of 5.98.
As to `CC(=O)CC[C@H]1C(=O)N[C@@H](C(C)C)C(=O)N[C@@H](Cc2cc(O)cc(F)c2)C(=O)N2CCCC(N2)C(=O)O[C@H](/C(C)=C/C=C/C(=O)Nc2ccccn2)C/C=C/C=C/[C@H](O)[C@H](C)[C@H]1O` (stereo partly shown) [Compound 25], the CC50 at 72 h in data set [1] is above 100000 nM. Also, the negative logarithm of the IC50 (pIC50) in data set [2] was 8.94. Further, in data set [3], the pEC50 is 7.18 and the “Selectivity index (CC50/EC50)” value is recorded as above 1515.
As for `CC[C@H]1C[C@H](C)[C@@]2(NC1=O)O[C@@H](C[C@H](O)[C@@H](C)CC/C=C/C=C(\C)[C@@H]1C/C=C/C=C/[C@H](O)[C@H](C)[C@@H](O)[C@@H](CCC(C)=O)C(=O)N[C@@H](C(C)C)C(=O)N[C@@H](Cc3cccc(O)c3)C(=O)N3CCC[C@H](N3)C(=O)O1)[C@H](C)[C@H](O)[C@@H]2C` [Sanglifehrin A, 5, Sanglifehrin A], the “less potent than Cyclosporine A” value in data set [5] is 10 fold.
Regarding `CC(=O)CC[C@H]1C(=O)N[C@@H](C(C)C)C(=O)N[C@@H](Cc2ccc(C)c(O)c2)C(=O)N2CCCC(N2)C(=O)O[C@H](/C(C)=C/C=C/C(=O)N2CCCCO2)C/C=C/C=C/[C@H](O)[C@H](C)[C@H]1O` (stereo partly shown) [Compound 27], the CC50 at 72 h in data set [1] (Huh5.2 cells containing the HCV genotype 1b replicon) was above 100000 nM. Besides, in data set [2] (read-out: CypA PPIase IC50), the pIC50 is 9.46. Also, in data set [3], the pEC50 is 6.92 and the “Selectivity index (CC50/EC50)” value is reported as above 826.
